Assay results as given in patent publication US9539256B2 (THE BOARD OF REGENTS OF THE UNIVERSITY OF TEXAS SYSTEM, priority 2012, dated 2017).
Entries after “also recorded” stand apart in the source; their conditions may differ.

Tests used:
[1] = biological target: T1, EPAC2 (Mus musculus, UniProt Q9EQZ6); test: Rap1-GDP exchange (GEF) activity assay, EPAC2
T1 sequence (Q9EQZ6 1-1011): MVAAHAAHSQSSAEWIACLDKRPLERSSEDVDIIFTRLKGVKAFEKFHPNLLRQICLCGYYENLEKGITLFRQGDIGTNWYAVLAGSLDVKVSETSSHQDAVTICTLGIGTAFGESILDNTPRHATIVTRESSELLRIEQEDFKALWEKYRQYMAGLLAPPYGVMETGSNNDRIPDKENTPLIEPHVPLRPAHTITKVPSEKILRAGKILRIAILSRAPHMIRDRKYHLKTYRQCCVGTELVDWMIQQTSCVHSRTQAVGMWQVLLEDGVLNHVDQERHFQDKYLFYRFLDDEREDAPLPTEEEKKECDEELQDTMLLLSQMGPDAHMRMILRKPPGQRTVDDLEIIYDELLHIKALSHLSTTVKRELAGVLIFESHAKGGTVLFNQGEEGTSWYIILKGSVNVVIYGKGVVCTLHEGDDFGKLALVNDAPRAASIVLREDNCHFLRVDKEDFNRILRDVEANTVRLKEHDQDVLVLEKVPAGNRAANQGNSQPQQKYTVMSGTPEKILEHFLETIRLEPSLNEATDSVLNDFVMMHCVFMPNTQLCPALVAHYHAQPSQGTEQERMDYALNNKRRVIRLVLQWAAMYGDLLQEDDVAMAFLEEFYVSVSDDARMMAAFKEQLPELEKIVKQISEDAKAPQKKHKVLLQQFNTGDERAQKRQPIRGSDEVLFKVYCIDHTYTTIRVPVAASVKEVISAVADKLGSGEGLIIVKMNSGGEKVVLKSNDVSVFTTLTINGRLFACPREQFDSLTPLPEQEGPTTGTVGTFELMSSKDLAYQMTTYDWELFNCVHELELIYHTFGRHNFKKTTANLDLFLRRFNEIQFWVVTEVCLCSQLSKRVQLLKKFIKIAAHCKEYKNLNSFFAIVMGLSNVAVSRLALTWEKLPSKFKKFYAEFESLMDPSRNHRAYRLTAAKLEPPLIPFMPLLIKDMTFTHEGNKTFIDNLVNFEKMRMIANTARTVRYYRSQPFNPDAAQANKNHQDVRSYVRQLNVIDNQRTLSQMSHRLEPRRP
Description: Exchange of Mant-GDP by GDP was measured as a decrease in fluorescence intensity over time using a FluoroMax-3 spectrofluorometer with excitation/emission wavelengths set at 366/450 nm. Typically, decay in the fluorescence intensity was recorded over a time course of 6000 s with data points taken every 60 s.

[2] = test system: pSTAT3 Y705; test: Leptin signaling in organotypic brain slice cultures, Western blotting; type: cell-based, mice; details: basal state and in response to leptin stimulation
Description: FIGS. 17A-17B. Pharmacological inhibition of EPAC reduces plasma leptin and enhances leptin signaling in hypothalamus (A) Western blotting of pSTAT3 Y705, total STAT3, SOCS3, SHP2 and α-tubulin in organotypic brain slices at hypothalamus level treated with leptin with or without EPAC specific inhibitor. (B) Plasma leptin levels of 8-week-old wild-type mice treated 3 weeks with vehicle or ESI-09 (50 mg/kg).
To explore the feasibility of increasing leptin sensitivity by targeting Epac1 using small molecules, organotypic brain slice cultures were prepared from 11-day old wild-type C57BL/6 mice. After 7 days ex vivo culture, treatment of the brain tissue with the Epac specific antagonist ESI-09 led to an enhanced pSTAT3 Y705 level both at the basal state and in response to leptin stimulation. […] These pharmacological data are in agreement with results obtained using Epac1 KO mice and further confirm that inhibition of Epac1 enhances leptin signaling in the hypothalamus. To further investigate the therapeutic potential of this small molecule, wild-type mice were with ESI-09 (50 mg/kg) or vehicle (corn oil) by oral gavage for 3 weeks.

[3] = test system: R. australia; test: Lethal-dose R. australia infection of mice; type: in vivo; details: WT C57BL/6 mice, 10 mg/kg, IP daily
Description: FIG. 21. ESI-09 treatment protects mice from lethal-dose infection of R. australia. WT C57BL/6 mice were treated with vehicle or ESI-09 (10 mg/kg, IP) daily. Five days after the treatment, mice were challenged with lethal dose of R. australia and continued ESI-09 daily treatment. Severity of illness and survival rate were monitored.
To test if EPAC inhibitors are capable of protecting mice from lethal-dose infection of R. australia. WT C57BL/6 mice were treated with vehicle or ESI-09 (10 mg/kg, IP) daily. Five days after the treatment, mice were challenged with lethal dose of R. australia and continued ESI-09 daily treatment.

[4] = test system: type I PKA holoenzyme; test: PKA counter screening, type I holoenzyme; type: biochemical; details: 25 μM compound
Description: (§1) Kinase activity of the type I and II PKA holoenzyme are measured spectrophotometrically in a 96-well plate with a coupled enzyme assay as described previously (Cook et al. (1982) Biochemistry 21: 5794-5799). In this assay, the formation of ADP is coupled to the oxidation of NADH by the pyruvate kinase/lactate dehydrogenase reactions so the reaction rate can be determined by following the oxidation of NADH, reflected by a decrease in absorbance at 340 nm. […] Reactions are pre-equilibrated at room temperature and initiated by adding the Kemptide substrate (final concentration 0.26 mM).

[5] = test system: OVA-specific IgG1 antibodies; test: Oral ovalbumin immunization, serum OVA-IgG1; type: in vivo; details: WT mice, oral gavage 50 mg/kg, versus vehicle
[6] = test system: type II PKA holoenzyme; test: PKA counter screening, type II holoenzyme; type: biochemical; details: 25 μM compound
Description: as §1

[7] = test system: AsPC-1, BxPC-3, and PANC-1; test: Transwell migration/invasion assay; type: cell-based; details: pretreated with 10.0 μM for 24 hours; AsPC-1, BxPC-3, PANC-1
Description: The top chamber of 8 micron inserts (Costar Inc) were coated with BD Matrigel™ Basement Membrane Matrix ([…]). Cells (2×10^5) pretreated with 10.0 μM of ESI-09 for 24 hours were added to the top chamber of the inserts in serum free RPMI medium containing 0.25% BSA. The bottom chamber was filled with 600.0 μL of RPMI containing 10% FBS and 10.0 μM ESI-09. The cells were then incubated at 37° C. in 5% CO2 for 20 hours. Cells were removed from the top chamber and migrated cells were fixed in methanol and stained with crystal violet. The number of migrated cells were counted from four different fields.

[8] = test system: AsPC-1 and PANC-1 cells; test: Pancreatic cancer cell viability, alamar blue assay; type: cell-based; design: dose or concentration left out as unconfirmed; details: ESI-09 for 24 hours and 48 hours
Description: FIG. 11. Effects of ESI-09 treatment on pancreatic cancer cell viability. AsPC-1 and PANC-1 cells were treated with vehicle control (open bars) or with […] ESI-09 (filled bars) for 24 hours and 48 hours. Cell viability was measured by a fluorometric alamar blue assay. Bars represent mean±s.d. (n=3).

Structure (SMILES): CC(C)(C)c1cc(C(=O)C(C#N)=NNc2cccc(Cl)c2)no1 [ESI-09, 3-(5-Tert-Butyl-Isoxazol-3-Yl)-2-[(3-Chlorophenyl)-Hydrazono]-3-Oxo-Propionitrile]
- IC50 [1]: 1.4 ± 0.1 µM
- pSTAT3 Y705 level [2]: enhanced
- protection of R. australia infection [3]: striking protection; also recorded: protects
- treatment group showing sign of sickness [3]: 10%
- cAMP-induced type I PKA holoenzyme activation [4]: did not significantly alter
- serum OVA-specific IgG1 antibodies [5]: significantly higher; also recorded: increases
- cAMP-induced type II PKA holoenzyme activation [6]: did not significantly alter
- cell migration, trans-well migration/invasion [7]: significant decrease; also recorded: significantly (P<0.05) decreased
- cell proliferation and viability [8]: did not significantly affect
